pEC50: −log10 of the molar value.
Columns and labels:
GIRK2/3 = settings: cited from earlier work
GIRK1/GIRK4 [1] = biological target: T1, GIRK1/GIRK4 (Homo sapiens, UniProt P48544+P48549); settings: GIRK1/2 activator vs GIRK1/4; cited from earlier work
T1 sequence (P48549 1-501): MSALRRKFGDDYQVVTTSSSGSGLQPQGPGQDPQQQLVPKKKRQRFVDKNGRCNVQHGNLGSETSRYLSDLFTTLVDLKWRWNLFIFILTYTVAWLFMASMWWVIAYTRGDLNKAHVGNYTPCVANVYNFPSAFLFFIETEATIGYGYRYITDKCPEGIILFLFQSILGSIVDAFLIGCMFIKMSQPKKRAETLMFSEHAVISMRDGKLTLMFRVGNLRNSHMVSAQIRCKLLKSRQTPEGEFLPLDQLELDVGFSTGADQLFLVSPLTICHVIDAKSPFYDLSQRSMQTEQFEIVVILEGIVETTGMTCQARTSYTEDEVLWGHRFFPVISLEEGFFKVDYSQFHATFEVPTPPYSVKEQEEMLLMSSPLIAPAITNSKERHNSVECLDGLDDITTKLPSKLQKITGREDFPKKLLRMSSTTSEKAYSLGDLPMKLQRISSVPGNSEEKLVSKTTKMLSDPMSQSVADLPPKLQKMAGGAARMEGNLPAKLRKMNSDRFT
T1 sequence (P48544 1-419): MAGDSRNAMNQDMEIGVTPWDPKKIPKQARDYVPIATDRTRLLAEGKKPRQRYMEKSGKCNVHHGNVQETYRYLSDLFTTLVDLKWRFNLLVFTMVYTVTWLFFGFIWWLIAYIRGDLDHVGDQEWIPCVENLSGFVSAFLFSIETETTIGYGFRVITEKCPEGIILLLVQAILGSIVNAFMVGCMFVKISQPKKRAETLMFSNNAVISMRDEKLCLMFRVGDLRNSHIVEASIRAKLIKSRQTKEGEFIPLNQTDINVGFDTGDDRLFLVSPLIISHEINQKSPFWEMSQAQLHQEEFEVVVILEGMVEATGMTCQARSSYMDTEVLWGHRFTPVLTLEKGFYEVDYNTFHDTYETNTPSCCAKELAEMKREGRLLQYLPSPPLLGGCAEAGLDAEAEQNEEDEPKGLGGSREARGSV

other K+ channels = settings: cited from earlier work
GIRK1/2 = settings: cited from earlier work
GIRK1/GIRK2 = biological target: T2, GIRK1/GIRK2 (Homo sapiens, UniProt P48051+P48549); experiment: GIRK1/2 thallium flux assay in stably transfected HEK-293 cells; type: cell-based
T2 sequence (P48549 1-501): T1 sequence (P48549 1-501)
T2 sequence (P48051 1-423): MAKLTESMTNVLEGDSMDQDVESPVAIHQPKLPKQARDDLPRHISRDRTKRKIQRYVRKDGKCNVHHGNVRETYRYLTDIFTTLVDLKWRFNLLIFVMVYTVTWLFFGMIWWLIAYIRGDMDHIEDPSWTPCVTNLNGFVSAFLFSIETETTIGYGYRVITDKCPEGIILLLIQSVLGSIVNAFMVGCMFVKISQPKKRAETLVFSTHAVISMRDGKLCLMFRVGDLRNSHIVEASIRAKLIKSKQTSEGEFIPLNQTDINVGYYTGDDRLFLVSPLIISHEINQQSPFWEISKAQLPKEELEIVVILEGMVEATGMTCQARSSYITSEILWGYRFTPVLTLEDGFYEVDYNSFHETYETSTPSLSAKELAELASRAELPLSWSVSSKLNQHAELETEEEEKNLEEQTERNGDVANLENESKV

GIRK1/GIRK4 [2] = biological target: T1, GIRK1/GIRK4; experiment: GIRK1/4 thallium flux assay in stably transfected HEK-293 cells; type: cell-based
GIRK = settings: cited from earlier work

Structure (SMILES) | GIRK1/2 activity (in words) (GIRK1/GIRK2) | GIRK1/4 activity (in words) (GIRK1/GIRK4 [2]) | other results
Cc1cc(NC(=O)Nc2ccc(F)c(F)c2)n(-c2ccccc2)n1 [Compd 2] |  |  | Activity on GIRK2/3 (in words) (GIRK2/3): inactive; Selectivity for GIRK1/2 vs GIRK1/4 (GIRK1/GIRK4 [1]): ~ 10 fold; Activity on other K+ channels (in words) (other K+ channels): inactive; CNS penetration (in words) (GIRK1/2): centrally penetrant; Anti-epileptic properties (in words) (GIRK1/2; mice, via GIRK1/2 activation): established anti-epileptic properties in mice
CN(C)S(=O)(=O)c1cccc(NC(=O)Cc2ccccc2Cl)c1 [Compd 3b] | diminished potency and lost efficacy | maintained potency and efficacy | 
CN(C)S(=O)(=O)c1cccc(NC(=O)Cc2ccc(Cl)cc2)c1 [Compd 3c] | diminution in potency | diminution in potency | 
Cc1ccc(NC(=O)Cc2ccc(F)cc2)cc1S(=O)(=O)N(C)C [Compd 3d] | diminution in potency | diminution in potency | 
O=C(Cc1ccccc1Cl)Nc1cccc(Cl)c1 [Compd 8g] |  | selective, partial GIRK1/4 activators | 
O=C(Cc1ccccc1Cl)Nc1ccc(C(F)(F)F)cc1 [Compd 8h] |  | selective, partial GIRK1/4 activators | 
CCO [ethanol] |  |  | Concentration known to activate GIRK (GIRK): hundreds of millimolar
C[C@@H]1O[C@@H](O[C@H]2[C@H](Oc3cc(O)c4c(c3)O[C@H](c3ccc(O)cc3)CC4=O)O[C@H](CO)[C@@H](O)[C@@H]2O)[C@H](O)[C@H](O)[C@H]1O [naringin] |  |  | pEC50 (GIRK; read-out: GIRK activation EC50, reported value): < 4.00
